Measurements as given in the NIST ThermoML archive (doi:10.1016/j.jct.2006.05.008).

Assay: molar heat capacity at constant pressure; wn = mass fraction of the nth substance listed
Settings: Small (less than 1 g) adiabatic calorimetry

CCCCn1cc[n+](C)c1.[Br-] [1-butyl-3-methylimidazolium bromide] + O
Crystal
Settings | molar heat capacity at constant pressure [J/K/mol]
80.69 K, w2 = 0.00482 | 98.89
80.93 K, w2 = 0.0051 | 98.9
81.42 K, w2 = 0.0169 | 89.1
83.2 K, w2 = 0.00482 | 100.65
83.26 K, w2 = 0.0051 | 100.45
83.41 K, w2 = 0.0169 | 90.19
84.28 K, w2 = 0.0495 | 71.58
85.41 K, w2 = 0.0169 | 91.5
85.62 K, w2 = 0.0051 | 101.93
85.71 K, w2 = 0.00482 | 102.22
86.99 K, w2 = 0.0495 | 72.97
87.41 K, w2 = 0.0169 | 92.8
87.99 K, w2 = 0.0051 | 103.55
88.22 K, w2 = 0.00482 | 103.95
89.41 K, w2 = 0.0169 | 94.12
89.64 K, w2 = 0.0495 | 74.29
90.39 K, w2 = 0.0051 | 105.19
90.73 K, w2 = 0.00482 | 105.63
91.42 K, w2 = 0.0169 | 95.27
92.3 K, w2 = 0.0495 | 75.61
92.8 K, w2 = 0.0051 | 106.81
93.24 K, w2 = 0.00482 | 107.29
93.42 K, w2 = 0.0169 | 96.43
94.99 K, w2 = 0.0495 | 76.9
95.24 K, w2 = 0.0051 | 108.32
95.42 K, w2 = 0.0169 | 97.66
95.77 K, w2 = 0.00482 | 108.86
97.43 K, w2 = 0.0169 | 98.68
97.68 K, w2 = 0.0051 | 109.8
97.69 K, w2 = 0.0495 | 78.16
98.29 K, w2 = 0.00482 | 110.42
99.44 K, w2 = 0.0169 | 99.85
100.14 K, w2 = 0.0051 | 111.32
100.41 K, w2 = 0.0495 | 79.41
100.82 K, w2 = 0.00482 | 111.94
101.45 K, w2 = 0.0169 | 101.05
102.61 K, w2 = 0.0051 | 112.8
103.15 K, w2 = 0.0495 | 80.66
103.35 K, w2 = 0.00482 | 113.4
103.46 K, w2 = 0.0169 | 102.17
105.09 K, w2 = 0.0051 | 114.19
105.47 K, w2 = 0.0169 | 103.12
105.88 K, w2 = 0.00482 | 114.89
105.9 K, w2 = 0.0495 | 81.82
107.49 K, w2 = 0.0169 | 104.29
107.59 K, w2 = 0.0051 | 115.72
108.42 K, w2 = 0.00482 | 116.33
108.67 K, w2 = 0.0495 | 83.08
109.51 K, w2 = 0.0169 | 105.26
110.1 K, w2 = 0.0051 | 117.14
110.97 K, w2 = 0.00482 | 117.75
111.45 K, w2 = 0.0495 | 84.27
111.54 K, w2 = 0.0169 | 106.2
112.61 K, w2 = 0.0051 | 118.54
113.51 K, w2 = 0.00482 | 119.17
113.57 K, w2 = 0.0169 | 107.35
114.24 K, w2 = 0.0495 | 85.5
115.14 K, w2 = 0.0051 | 119.96
115.6 K, w2 = 0.0169 | 108.36
116.06 K, w2 = 0.00482 | 120.61
117.04 K, w2 = 0.0495 | 86.65
117.63 K, w2 = 0.0169 | 109.39
117.68 K, w2 = 0.0051 | 121.3
118.63 K, w2 = 0.00482 | 121.93
119.66 K, w2 = 0.0169 | 110.42
119.84 K, w2 = 0.0495 | 87.83
120.23 K, w2 = 0.0051 | 122.75
121.18 K, w2 = 0.00482 | 123.35
121.69 K, w2 = 0.0169 | 111.46
122.66 K, w2 = 0.0495 | 89.01
122.78 K, w2 = 0.0051 | 124.09
123.73 K, w2 = 0.0169 | 112.39
123.74 K, w2 = 0.00482 | 124.71
125.34 K, w2 = 0.0051 | 125.46
125.48 K, w2 = 0.0495 | 90.15
125.77 K, w2 = 0.0169 | 113.34
126.3 K, w2 = 0.00482 | 126.04
127.81 K, w2 = 0.0169 | 114.42
127.91 K, w2 = 0.0051 | 126.77
128.32 K, w2 = 0.0495 | 91.34
128.86 K, w2 = 0.00482 | 127.4
129.85 K, w2 = 0.0169 | 115.33
130.48 K, w2 = 0.0051 | 128.21
131.16 K, w2 = 0.0495 | 92.52
131.42 K, w2 = 0.00482 | 128.75
131.9 K, w2 = 0.0169 | 116.36
133.06 K, w2 = 0.0051 | 129.58
133.95 K, w2 = 0.0169 | 117.4
134 K, w2 = 0.00482 | 130.13
134 K, w2 = 0.0495 | 93.65
135.64 K, w2 = 0.0051 | 131
136 K, w2 = 0.0169 | 118.35
136.57 K, w2 = 0.00482 | 131.47
136.85 K, w2 = 0.0495 | 94.81
138.05 K, w2 = 0.0169 | 119.43
139.14 K, w2 = 0.00482 | 132.79
139.19 K, w2 = 0.0051 | 132.51
139.7 K, w2 = 0.0495 | 95.99
140.1 K, w2 = 0.0169 | 120.24
141.87 K, w2 = 0.0051 | 133.88
142.16 K, w2 = 0.0169 | 121.29
142.55 K, w2 = 0.0495 | 97.17
143.39 K, w2 = 0.00482 | 135
144.23 K, w2 = 0.0169 | 122.36
144.46 K, w2 = 0.0051 | 135.42
145.41 K, w2 = 0.0495 | 98.38
145.73 K, w2 = 0.00482 | 136.26
146.29 K, w2 = 0.0169 | 123.43
147.05 K, w2 = 0.0051 | 136.72
148.27 K, w2 = 0.0495 | 99.58
148.31 K, w2 = 0.00482 | 137.61
148.35 K, w2 = 0.0169 | 124.38
149.65 K, w2 = 0.0051 | 138.06
150.42 K, w2 = 0.0169 | 125.3
150.89 K, w2 = 0.00482 | 138.87
151.13 K, w2 = 0.0495 | 100.83
152.25 K, w2 = 0.0051 | 139.46
152.48 K, w2 = 0.0169 | 126.38

101.3 kPa, Glass, w2 = 0.00482
Settings | molar heat capacity at constant pressure [J/K/mol]
82.79 K | 103.56
85.01 K | 105.32
87.51 K | 107.36
90.01 K | 109.3
92.52 K | 111.32
95.02 K | 113.23
99.79 K | 116.7
102.06 K | 118.31
104.58 K | 120.07
107.1 K | 121.78
109.63 K | 123.51
112.16 K | 125.21
114.69 K | 126.86
117.23 K | 128.48
119.76 K | 130.09
122.3 K | 131.74
124.85 K | 133.4
127.39 K | 135.01
129.94 K | 136.58
132.49 K | 138.2
135.04 K | 139.78
137.59 K | 141.4
140.15 K | 142.95
142.71 K | 144.57
145.27 K | 146.31
147.83 K | 147.89
150.39 K | 149.45
